Test results: US9999619B2, “Piperidin-4-yl azetidine derivatives as JAK1 inhibitors” (Incyte Corporation, priority 2010, dated 2018)

Assays:
Format in all cases: biochemical
Jak2 (a.a. 828-1132) = Jak2 (a.a. 828-1132) (Homo sapiens (Human), UniProt O60674); assay: In vitro JAK kinase assay (HTRF, phosphorylation of a biotinylated peptide), JAK2; details: measured at 1 mM ATP
Procedure, shortened: (§1)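 N-terminal His-tagged catalytic domains, baculovirus-expressed in insect cells, phosphorylated a biotinylated peptide for 1 hr at room temperature. EDTA stop was followed by SA-APC and Eu-Py20 antibody for 40 minutes, with phosphopeptide read by HTRF.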

[1] = biological target: human JAK1 (a.a. 837-1142); assay: In vitro JAK kinase assay (HTRF, phosphorylation of a biotinylated peptide), JAK1; details: ratio of JAK2 IC50 to JAK1 IC50, measured at 1 mM ATP
Procedure, shortened: as §1

[2] = biological target: human JAK1 (a.a. 837-1142) (Homo sapiens, UniProt P23458); assay: as above; details: measured at 1 mM ATP
Procedure, shortened: as §1

Chain of Jak2 (a.a. 828-1132) (O60674 828-1132): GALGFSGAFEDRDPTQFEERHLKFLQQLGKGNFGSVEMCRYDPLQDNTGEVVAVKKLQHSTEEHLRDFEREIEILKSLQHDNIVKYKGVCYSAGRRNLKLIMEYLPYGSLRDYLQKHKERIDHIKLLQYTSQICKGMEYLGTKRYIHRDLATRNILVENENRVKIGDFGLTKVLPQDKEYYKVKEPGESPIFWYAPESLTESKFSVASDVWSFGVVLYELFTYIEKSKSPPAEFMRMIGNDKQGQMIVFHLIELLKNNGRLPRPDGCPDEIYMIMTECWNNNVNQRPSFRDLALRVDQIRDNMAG

IC50 (Jak2 (a.a. 828-1132)): 50 to 100 nM
IC50 Ratio JAK2/JAK1 [1]: 24.4
IC50 [2]: ≤ 5 nM
SMILES: N#CCC1(n2cc(-c3ncnc4[nH]ccc34)cn2)CN(C2CCN(C(=O)OCc3cc(F)cc(F)c3)CC2)C1 [Example 395, 3,5-difluorobenzyl 4-{3-(cyanomethyl)-3-[4-(7H-pyrrolo[2,3-d]pyrimidin-4-yl)-1H-pyrazol-1-yl]azetidin-1-yl}piperidine-1-carboxylate]
